What was measured:
Assay type in all cases: in vivo, human
[1] = test system: strawberry flavor intensity (consumer panel); assay: Strawberry consumer panel: bivariate fit to strawberry flavor intensity; conditions: for relationship to strawberry flavor intensity / sensory perception: in words; for Parameter Estimates: Estimate: bivariate linear fit, X = content of the substance in strawberry fruit, Y = Flavor Intensity (FI)
Experimental: (§1) All consumer panels were approved by the University of Florida Institutional Review Board. […] Ages of panelist ranged from 18 to 71, with a median age of 24. Panelists self-classified themselves as 98 White or Caucasian, 11 Black or African-American, 1 Native American, Alaska Native or Aleutian, 41 Asian/Pacific Islander, and 15 Other. […] Fresh, fully-ripe strawberry fruit was removed from overnight 4° C. dark storage and allowed to warm to room temperature prior to sensory analysis. Each panelist was given one to two whole strawberries for evaluation, depending on cultivar availability. Panelist took a bite of each sample, chewed, and swallowed it. Ratings for overall liking and liking for texture were scaled on hedonic general labeled magnitude scale (gLMS) in the context of all pleasure/displeasure experiences. […] Scales were employed to mediate valid comparisons across subjects and sessions.
(§2) Bivariate analysis among individual measurements of samples allowed for linear fit, which includes summary of fit, analysis of variance, t-test, and correlation analysis for density ellipse. Two-way Ward hierarchical cluster analysis of all metabolite concentrations and strawberry samples accomplished in JMP.

[2] = test system: perceived sweetness intensity of strawberry fruit (consumer panel); assay: Strawberry consumer panel: multiple regression of volatile concentration against perceived sweetness intensity independent of glucose, fructose or sucrose; conditions: for negatively related to sweetness: sugar(s) of which the effect is independent: compounds negatively related to sweetness independent of at least one of the sugars; for enhancement of perceived intensity of sweetness independent of sugars: in words
Experimental: Step-wise multiple regressions of all volatile compounds against perceived intensity of sweetness is performed independent of either glucose, fructose, or sucrose concentration, separately (Table 6).
as §1
Multiple regressions were performed with the “enter” method in SPSS for identification of sweetness enhancing volatiles. Individual volatile compound concentrations were regressed using the “enter” method in SPSS Statistics (IBM Corp, Armonk, N.Y., USA).

[3] = test system: texture liking of strawberry fruit (consumer panel); assay: Strawberry consumer panel: bivariate fit to texture liking; conditions: bivariate linear fit; X = content of the substance in strawberry fruit, Y = Texture liking
Experimental: as §1, §2

**Q.** For CC/C=C/C=O [1576-87-0, (E)-pent-2-en-1-al], which “relationship to strawberry flavor intensity / sensory perception” value [1] is on record?
**A.** enhancing toward flavor intensity

**Q.** With CCCCCCCC(=O)OCC [106-32-1, ethyl octanoate] as the compound, how does the “negatively related to sweetness: sugar(s) of which the effect is independent” value (from here on “negatively related to sweetness”) [2] read?
**A.** exclusively independent of glucose

**Q.** What does the source list for CSC(C)=O [1534-08-3]?
**A.** Parameter Estimates-fit to Texture Liking: Estimate [3]: 0.06449; Parameter Estimates: Estimate [1]: 1.808

**Q.** CCCCC=O [110-62-3] was tested. Which “Parameter Estimates-fit to Texture Liking: Estimate” value (from here on “Parameter Estimates-fit”) [3] did it give?
**A.** 0.1789

**Q.** What about the “Parameter Estimates: Estimate” value [1] of the same compound?
**A.** −0.1249

**Q.** And the “relationship to strawberry flavor intensity / sensory perception” value [1]?
**A.** negatively correlated to flavor

**Q.** How did the “enhancement of perceived intensity of sweetness independent of sugars” value (from here on “enhancement”) [2] turn out when CCCCCCC=O [111-71-7, heptanal] was run?
**A.** show evidence of enhancing perceived sweetness intensity independent of individual sugars

**Q.** With CC(=O)OCc1ccccc1 [140-11-4] as the compound, how does the “Parameter Estimates-fit” value [3] read?
**A.** −0.0849

**Q.** And the “Parameter Estimates: Estimate” value [1]?
**A.** 0.02204

**Q.** COC1=C(C)OC(C)C1=O (centres unmarked) [4077-47-8, 4-methoxy-2,5-dimethyl-3(2H)-furanone] was tested. Which “relationship to strawberry flavor intensity / sensory perception” value [1] did it give?
**A.** significant positive correlation with flavor intensity

**Q.** For C/C=C/C(=O)OC [623-43-8], which “Parameter Estimates-fit” value [3] is on record?
**A.** −0.7133

**Q.** And the “Parameter Estimates: Estimate” value [1]?
**A.** −0.101

**Q.** CCCCCCCCOC(=O)CC(C)C [7786-58-5, octyl 3-methylbutanoate] was tested. Which “enhancement” value [2] did it give?
**A.** show evidence of enhancing perceived sweetness intensity independent of individual sugars

**Q.** Which results are given for CCCC(=O)OC [623-42-7]?
**A.** Parameter Estimates-fit to Texture Liking: Estimate [3]: 6.892e−05; Parameter Estimates: Estimate [1]: 0.0008905; relationship to strawberry flavor intensity / sensory perception [1]: significant positive correlation with flavor intensity

**Q.** For CCCCCCOC(=O)CCC [2639-63-6, hexyl butyrate], which “enhancement” value [2] is on record?
**A.** mutually independent of all three sugar

**Q.** CCC(=O)CC [96-22-0] was tested. Which “Parameter Estimates-fit” value [3] did it give?
**A.** 0.004596

**Q.** What about the “Parameter Estimates: Estimate” value [1] of the same compound?
**A.** 0.05443

**Q.** What does the source list for CCCCCCC1CCC(=O)O1 (centres unmarked) [706-14-9]?
**A.** Parameter Estimates-fit to Texture Liking: Estimate [3]: 0.01485; Parameter Estimates: Estimate [1]: 0.02049

**Q.** Which “Parameter Estimates-fit” value [3] does the source give for CCC(O)C(=O)OC (centres unmarked) [29674-47-3] here?
**A.** 0.02693

**Q.** What about the “Parameter Estimates: Estimate” value [1] of the same compound?
**A.** 0.207

**Q.** Which “Parameter Estimates-fit” value [3] does the source give for CCCOC(C)=O [109-60-4] here?
**A.** −0.5137

**Q.** What about the “Parameter Estimates: Estimate” value [1] of the same compound?
**A.** −0.05307

**Q.** Which “Parameter Estimates-fit” value [3] does the source give for C=C(C)C1CC=C(COC(C)=O)CC1 (centres unmarked) [15111-96-3] here?
**A.** −0.1056

**Q.** And the “Parameter Estimates: Estimate” value [1]?
**A.** −0.2365

**Q.** For CCCCC(=O)OCC [539-82-2, ethyl valerate], which “enhancement” value [2] is on record?
**A.** show evidence of enhancing perceived sweetness intensity independent of individual sugars

**Q.** With CC(=O)OCCC(C)C [123-92-2] as the compound, how does the “Parameter Estimates-fit” value [3] read?
**A.** −0.07997

**Q.** And the “Parameter Estimates: Estimate” value [1]?
**A.** 0.005816

**Q.** Which results are given for C=CC(O)CC (centres unmarked) [616-25-1]?
**A.** Parameter Estimates-fit to Texture Liking: Estimate [3]: 0.06401; Parameter Estimates: Estimate [1]: 0.2097

**Q.** For CCCCC/C=C\C=O [20664-46-4], which “Parameter Estimates-fit” value [3] is on record?
**A.** −0.04121

**Q.** And the “Parameter Estimates: Estimate” value [1]?
**A.** 0.03985

**Q.** What does the source list for CC=C(C)C(=O)OCC [55514-48-2]?
**A.** Parameter Estimates-fit to Texture Liking: Estimate [3]: −2.984; Parameter Estimates: Estimate [1]: −0.1506

**Q.** With CC(=O)OCC=C(C)C [1191-16-8, 3-methyl-2-buten-1-yl acetate] as the compound, how does the “negatively related to sweetness” value [2] read?
**A.** exclusively independent of sucrose

**Q.** Which “enhancement” value [2] does the source give for CCCCOC(=O)CC(C)C [109-19-3, butyl 3-methylbutanoate] here?
**A.** show evidence of enhancing perceived sweetness intensity independent of individual sugars

**Q.** What does the source list for COC(=O)c1ccccc1N [134-20-3]?
**A.** Parameter Estimates-fit to Texture Liking: Estimate [3]: −4.493; Parameter Estimates: Estimate [1]: −0.8484

**Q.** For CCCCCCCCC1CCC(=O)O1 (centres unmarked) [2305-05-7, 5-octyldihydro-2(3H)-furanone], which “enhancement” value [2] is on record?
**A.** mutually independent of all three sugar

**Q.** What does the source list for CCCCC(CC)COC(C)=O (centres unmarked) [103-09-3]?
**A.** Parameter Estimates-fit to Texture Liking: Estimate [3]: −1.955; Parameter Estimates: Estimate [1]: 0.01965

**Q.** What does the source list for CCCCCOC(C)=O [628-63-7]?
**A.** Parameter Estimates-fit to Texture Liking: Estimate [3]: −0.1907; Parameter Estimates: Estimate [1]: 0.4892

**Q.** What does the source list for C=C[C@]1(C)CC[C@H](C(C)(C)O)O1 [5989-33-3]?
**A.** Parameter Estimates-fit to Texture Liking: Estimate [3]: 0.6605; Parameter Estimates: Estimate [1]: 0.7378

**Q.** How did the “negatively related to sweetness” value [2] turn out when CC(=O)CC(C)C [108-10-1, 4-Methyl-2-pentanone] was run?
**A.** mutually independent of glucose and fructose

**Q.** What does the source list for CCOC(=O)CC [105-37-3]?
**A.** Parameter Estimates-fit to Texture Liking: Estimate [3]: −0.01062; Parameter Estimates: Estimate [1]: −0.01371

**Q.** How did the “Parameter Estimates-fit” value [3] turn out when CCCCCO [71-41-0] was run?
**A.** 0.3727

**Q.** What about the “Parameter Estimates: Estimate” value [1] of the same compound?
**A.** 0.2445

**Q.** Which results are given for CCC(C)(C)O [75-85-4]?
**A.** Parameter Estimates-fit to Texture Liking: Estimate [3]: 0.3219; Parameter Estimates: Estimate [1]: 0.1051

**Q.** For CCCCCCCC=O [124-13-0], which “Parameter Estimates-fit” value [3] is on record?
**A.** −0.2865

**Q.** What about the “Parameter Estimates: Estimate” value [1] of the same compound?
**A.** 0.3091

**Q.** Which results are given for C=CC(C)(O)CC/C=C(\C)CCC=C(C)C (centres unmarked) [40716-66-3]?
**A.** Parameter Estimates-fit to Texture Liking: Estimate [3]: 0.01941; Parameter Estimates: Estimate [1]: 0.01223

**Q.** O=C(O)CC(O)C(=O)O (centres unmarked) [Malic] was tested. Which “Parameter Estimates-fit” value [3] did it give?
**A.** 0.05905

**Q.** What about the “Parameter Estimates: Estimate” value [1] of the same compound?
**A.** 0.001142

**Q.** How did the “Parameter Estimates-fit” value [3] turn out when CCCCCC(=O)OCC [123-66-0] was run?
**A.** −0.0003354

**Q.** And the “Parameter Estimates: Estimate” value [1]?
**A.** 0.002386

**Q.** And the “relationship to strawberry flavor intensity / sensory perception” value [1]?
**A.** no bearing on sensory perception

**Q.** Cc1cc(C(C)(C)C)c(O)c(C(C)(C)C)c1 [128-37-0] was tested. Which “Parameter Estimates-fit” value [3] did it give?
**A.** 0.2009

**Q.** And the “Parameter Estimates: Estimate” value [1]?
**A.** 0.1227

**Q.** For CCCCCCCCOC(=O)C(C)CC (centres unmarked) [29811-50-5], which “Parameter Estimates-fit” value [3] is on record?
**A.** −0.1411

**Q.** And the “Parameter Estimates: Estimate” value [1]?
**A.** 0.1055

**Q.** For CCC/C=C/CO [928-95-0], which “Parameter Estimates-fit” value [3] is on record?
**A.** −0.0133

**Q.** And the “Parameter Estimates: Estimate” value [1]?
**A.** −0.0006379

**Q.** With CCCCC(=O)C(C)=O [96-04-8] as the compound, how does the “Parameter Estimates-fit” value [3] read?
**A.** −0.09953

**Q.** What about the “Parameter Estimates: Estimate” value [1] of the same compound?
**A.** 0.01959

**Q.** CCCCCC=O [66-25-1] was tested. Which “Parameter Estimates-fit” value [3] did it give?
**A.** 0.0005099

**Q.** What about the “Parameter Estimates: Estimate” value [1] of the same compound?
**A.** 0.0002842

**Q.** What about the “relationship to strawberry flavor intensity / sensory perception” value [1] of the same compound?
**A.** does not have a significant correlation to flavor intensity

**Q.** Which “enhancement” value [2] does the source give for CCCCCOC(=O)CCC [540-18-1, pentyl butyrate] here?
**A.** mutually independent of all three sugar

**Q.** With CCCC(=O)OCC [105-54-4, ethyl butyrate] as the compound, how does the “relationship to strawberry flavor intensity / sensory perception” value [1] read?
**A.** significant positive correlation with flavor intensity

**Q.** Which results are given for CCC(C)COC(C)=O (centres unmarked) [624-41-9]?
**A.** Parameter Estimates-fit to Texture Liking: Estimate [3]: −0.03512; Parameter Estimates: Estimate [1]: 0.009696

**Q.** With O=C(O)CC(O)(CC(=O)O)C(=O)O [Citric] as the compound, how does the “Parameter Estimates-fit” value [3] read?
**A.** −0.001831

**Q.** What about the “Parameter Estimates: Estimate” value [1] of the same compound?
**A.** 0.01293

**Q.** Which “enhancement” value [2] does the source give for CCCCCCOC(C)=O [142-92-7, hexyl acetate] here?
**A.** mutually independent of all three sugar

**Q.** Which “enhancement” value [2] does the source give for C=CC(=O)CC [1629-58-9, 1-penten-3-one] here?
**A.** mutually independent of all three sugar

**Q.** Which “enhancement” value [2] does the source give for CCCC(=O)OC(C)CCC (centres unmarked) [60415-61-4, 2-pentanyl butyrate] here?
**A.** mutually independent of all three sugar

**Q.** For CCCCC/C=C/C=O [2548-87-0], which “Parameter Estimates-fit” value [3] is on record?
**A.** 1.345

**Q.** What about the “Parameter Estimates: Estimate” value [1] of the same compound?
**A.** 0.6039

**Q.** How did the “Parameter Estimates-fit” value [3] turn out when CCCC(=O)CC [589-38-8] was run?
**A.** 0.4306

**Q.** What about the “Parameter Estimates: Estimate” value [1] of the same compound?
**A.** 0.4621

**Q.** What does the source list for CCCCC(=O)OC [624-24-8]?
**A.** Parameter Estimates-fit to Texture Liking: Estimate [3]: 0.2596; Parameter Estimates: Estimate [1]: −0.1

**Q.** What does the source list for CCC/C=C/COC(C)=O [2497-18-9]?
**A.** Parameter Estimates-fit to Texture Liking: Estimate [3]: −0.02456; Parameter Estimates: Estimate [1]: 0.008248
